The test has as its target T1, Dihydropteroate synthase (DHPS) (Streptococcus pneumoniae, UniProt P05382).
T1 construct: gene sulA; dimer; immobilized on PEMA or POMA coated glass
In words: competitive hydrogel microparticle (SCP) binding assay, RICM contact area. The note with it: DHPS immobilized on PEMA-coated glass; 0.1 M MOPS pH 6.0, 5 mM MgCl2, 600 uM pyrophosphate, room temperature; competes with SMX derivative on microparticles.

A value given as a limit tells only on which side of the number the result lay.

T1 sequence (P05382 whole entry): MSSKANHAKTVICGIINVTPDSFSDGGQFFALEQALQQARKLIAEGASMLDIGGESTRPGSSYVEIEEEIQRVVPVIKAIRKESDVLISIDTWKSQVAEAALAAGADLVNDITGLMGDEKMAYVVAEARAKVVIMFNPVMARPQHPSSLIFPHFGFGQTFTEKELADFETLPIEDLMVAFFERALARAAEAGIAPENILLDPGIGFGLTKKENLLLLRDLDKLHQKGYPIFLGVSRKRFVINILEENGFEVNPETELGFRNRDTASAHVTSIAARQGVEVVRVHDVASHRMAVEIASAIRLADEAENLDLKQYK

For `Cc1cc(NS(=O)(=O)c2ccc(N)cc2)no1` [SMX, sulfamethoxazole], the “% decrease of SCP contact area diameter at 1 mM” value is recorded as greater than 50%.

For the origin of these results see publication PMC11440465, “Detection of Sulfonamide Antibiotics Using an Elastic Hydrogel Microparticles-Based Optical Biosensor” (ACS Applied Materials & Interfaces, 2024).
